Laboratory results reported in paper PMC5681660, “Reduced hepatitis B and D viral entry using clinically applied drugs as novel inhibitors of the bile acid transporter NTCP” (Scientific Reports, 2017).
Counter-ions that a name gives are not always drawn. Like-named read-outs stand apart in the source and are kept apart here.

Key:
[1] = molecular target: T1, human NTCP (Homo sapiens, UniProt Q14973); test: Screening fluorescent competitive Myrcludex B-FITC binding assay (96-well, 10 µM drug)
T1 sequence (Q14973 1-349): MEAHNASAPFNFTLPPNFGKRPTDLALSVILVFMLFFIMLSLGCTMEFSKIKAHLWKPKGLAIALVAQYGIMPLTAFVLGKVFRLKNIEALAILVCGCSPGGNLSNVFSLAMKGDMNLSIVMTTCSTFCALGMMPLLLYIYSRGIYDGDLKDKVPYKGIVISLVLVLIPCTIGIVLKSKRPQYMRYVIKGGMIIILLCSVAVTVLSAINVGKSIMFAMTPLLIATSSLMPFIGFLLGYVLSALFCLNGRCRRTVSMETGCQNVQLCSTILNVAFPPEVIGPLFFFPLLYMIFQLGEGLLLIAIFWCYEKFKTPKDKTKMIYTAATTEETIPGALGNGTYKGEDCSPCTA

[2] = molecular target: T1, human NTCP; test: Screening taurocholate uptake assay (96-well, [14C]taurocholate, 10 µM drug)
[3] = screen, 10 µM drug, Myrcludex B-FITC binding
[4] = combined ranking from functional and binding screening assays
[5] = screen, 10 µM drug, taurocholate uptake
[6] = Prestwick library screen, Myrcludex B-FITC binding, 10 µM drug
[7] = Prestwick library screen, taurocholate uptake, 10 µM drug
[8] = ranking score beside the functional and binding assay B-scores of the screen
[9] = Prestwick library screen, 10 µM drug, B-score of Myrcludex B-FITC binding
[10] = Prestwick library screen, 10 µM drug, B-score of taurocholate uptake
[11] = combined ranking from functional and binding assay B-scores

For `C[C@]12COC(=O)C[C@@H]1CC[C@@H]1[C@@H]2CC[C@@]2(C)[C@H]1CC[C@]2(C)O` [Oxandrolone], the B-score binding assay [1] was 1.484, the B-score functional assay [2] was -0.501 and the Ranking score [2] was 649.785.

`O=C(O)CCc1nc(-c2ccccc2)c(-c2ccccc2)o1` [Oxaprozin] showed a B-score binding assay [1, 3] of -0.29, a Ranking score [2, 4] of 341.015 and a B-score functional assay [2, 5] of -0.957.

`NC(=O)N1c2ccccc2CC(=O)c2ccccc21` [Oxcarbazepine] was tested, and the B-score binding assay [1, 6] was 0.508, the B-score functional assay [2, 7] was 0.032 and the Ranking score [2, 8] was 789.959.

`COC(=O)Nc1nc2ccc([S+]([O-])c3ccccc3)cc2[nH]1` (stereo not drawn) [Oxfendazol] gave a B-score binding assay [1, 9] of 1.363, a B-score functional assay [2, 10] of 0.699 and a Ranking score [2, 11] of 1042.44.

Work on `CCn1cc(C(=O)O)c(=O)c2cc3c(cc21)OCO3` [Oxolinic acid] yielded a B-score binding assay [1, 6] of 1.837, a B-score functional assay [2, 7] of -0.139 and a Ranking score [2, 8] of 776.518.

`C=CCOc1ccccc1OCC(O)CNC(C)C` (stereo not drawn) [Oxprenolol hydrochloride] was tested, and the B-score binding assay [1, 3] was -0.666, the Ranking score [2, 4] was 434.185 and the B-score functional assay [2, 5] was -0.061.

For `COc1ccc(C(=O)c2ccccc2)c(O)c1` [Oxybenzone], the B-score binding assay [1, 6] was -0.416, the B-score functional assay [2, 7] was 2.742 and the Ranking score [2, 8] was 706.929.

Work on `CCN(CC)CC#CCOC(=O)C(O)(c1ccccc1)C1CCCCC1` (stereo not drawn) [Oxybutynin chloride] yielded a B-score binding assay [1, 6] of 0.285, a B-score functional assay [2, 7] of 0.163 and a Ranking score [2, 8] of 808.614.

`Cc1cc(C(C)(C)C)c(O)c(C)c1CC1=NCCN1` [Oxymetazoline hydrochloride] showed a B-score binding assay [1, 9] of 2.755, a B-score functional assay [2, 10] of 0.493 and a Ranking score [2, 11] of 1060.78.

`CCCCC1C(=O)N(c2ccccc2)N(c2ccc(O)cc2)C1=O` (stereo not drawn) [Oxyphenbutazone] gave a B-score binding assay [1, 9] of 0.23, a B-score functional assay [2, 10] of 2.782 and a Ranking score [2, 11] of 1000.56.

Compound `CN(C)[C@@H]1C(O)=C(C(N)=O)C(=O)[C@@]2(O)C(O)=C3C(=O)c4c(O)cccc4[C@@](C)(O)[C@H]3[C@H](O)[C@@H]12` [Oxytetracycline dihydrate] has a B-score binding assay [1, 9] of 1.019, a B-score functional assay [2, 10] of 0.414 and a Ranking score [2, 11] of 958.668.

With `Cl.O=C(O)/C=C/c1ccc(Cn2ccnc2)cc1` [Ozagrel hydrochloride] the B-score binding assay [1, 9] was 1.332, the B-score functional assay [2, 10] was 1.392 and the Ranking score [2, 11] was 1118.41.

`CC(=O)O[C@H]1C(=O)[C@@]2(C)[C@H]([C@H](OC(=O)c3ccccc3)[C@]3(O)C[C@H](OC(=O)[C@H](O)[C@@H](NC(=O)c4ccccc4)c4ccccc4)C(C)=C1C3(C)C)[C@]1(OC(C)=O)CO[C@@H]1C[C@@H]2O` [Paclitaxel] was tested, and the B-score binding assay [1, 6] was 0.829, the B-score functional assay [2, 7] was -0.069 and the Ranking score [2, 8] was 752.811.

`O=C1c2cccc3c2[C@H](CCC3)CN1[C@@H]1CN2CCC1CC2` [Palonosetron hydrochloride] was tested, and the B-score binding assay [1, 6] was -0.051, the B-score functional assay [2, 7] was 1.95 and the Ranking score [2, 8] was 833.96.

In the case of `CC(=O)O[C@H]1C[C@@H]2CC[C@@H]3[C@H](CC[C@@]4(C)[C@H]3C[C@H]([N+]3(C)CCCCC3)[C@@H]4OC(C)=O)[C@@]2(C)C[C@@H]1[N+]1(C)CCCCC1` [Pancuronium bromide], the B-score binding assay [1, 6] is reported as -0.008, the B-score functional assay [2, 7] is reported as 0.614 and the Ranking score [2, 8] is reported as 767.5.

`CC(C)(CO)[C@@H](O)C(=O)NCCCO` [Panthenol (D)] showed a B-score binding assay [1, 9] of 0.428, a B-score functional assay [2, 10] of 0.501 and a Ranking score [2, 11] of 899.92.

`COc1ccnc(C[S+]([O-])c2nc3ccc(OC(F)F)cc3[nH]2)c1OC` (stereo not drawn) [Pantoprazole sodium] gave a B-score binding assay [1] of 0.377, a B-score functional assay [2] of 0.443 and a Ranking score [2] of 878.449.

Compound `COc1ccc(Cc2nccc3cc(OC)c(OC)cc23)cc1OC` [Papaverine hydrochloride] has a B-score binding assay [1, 6] of 0.722, a B-score functional assay [2, 7] of -0.09 and a Ranking score [2, 8] of 728.955.

`CCCCc1ccc2[nH]c(NC(=O)OC)nc2c1` [Parbendazole] gave a B-score binding assay [1, 9] of 0.33, a B-score functional assay [2, 10] of 1.481 and a Ranking score [2, 11] of 989.697.

In the case of `C#CCN(C)Cc1ccccc1` [Pargyline hydrochloride], the B-score binding assay [1, 6] is reported as 0.419, the B-score functional assay [2, 7] is reported as -0.107 and the Ranking score [2, 8] is reported as 685.259.

Compound `NC[C@@H]1O[C@H](O[C@H]2[C@@H](O)[C@H](O[C@@H]3[C@@H](O)[C@H](N)C[C@H](N)[C@H]3O[C@H]3O[C@H](CO)[C@@H](O)[C@H](O)[C@H]3N)O[C@@H]2CO)[C@H](N)[C@@H](O)[C@@H]1O` [Paromomycin sulfate] has a B-score binding assay [1, 9] of 1.613, a B-score functional assay [2, 10] of 0.247 and a Ranking score [2, 11] of 976.576.
